Test [1] addresses T1, human androgen receptor (Homo sapiens, UniProt P10275, T878A).
T1 construct: endogenously expressed human androgen receptor using the LnCap prostate cancer cell line; endogenous in cells; host or cells: LNCaP prostate cancer cell line (whole cells)
T1 sequence (P10275 1-920 T878A): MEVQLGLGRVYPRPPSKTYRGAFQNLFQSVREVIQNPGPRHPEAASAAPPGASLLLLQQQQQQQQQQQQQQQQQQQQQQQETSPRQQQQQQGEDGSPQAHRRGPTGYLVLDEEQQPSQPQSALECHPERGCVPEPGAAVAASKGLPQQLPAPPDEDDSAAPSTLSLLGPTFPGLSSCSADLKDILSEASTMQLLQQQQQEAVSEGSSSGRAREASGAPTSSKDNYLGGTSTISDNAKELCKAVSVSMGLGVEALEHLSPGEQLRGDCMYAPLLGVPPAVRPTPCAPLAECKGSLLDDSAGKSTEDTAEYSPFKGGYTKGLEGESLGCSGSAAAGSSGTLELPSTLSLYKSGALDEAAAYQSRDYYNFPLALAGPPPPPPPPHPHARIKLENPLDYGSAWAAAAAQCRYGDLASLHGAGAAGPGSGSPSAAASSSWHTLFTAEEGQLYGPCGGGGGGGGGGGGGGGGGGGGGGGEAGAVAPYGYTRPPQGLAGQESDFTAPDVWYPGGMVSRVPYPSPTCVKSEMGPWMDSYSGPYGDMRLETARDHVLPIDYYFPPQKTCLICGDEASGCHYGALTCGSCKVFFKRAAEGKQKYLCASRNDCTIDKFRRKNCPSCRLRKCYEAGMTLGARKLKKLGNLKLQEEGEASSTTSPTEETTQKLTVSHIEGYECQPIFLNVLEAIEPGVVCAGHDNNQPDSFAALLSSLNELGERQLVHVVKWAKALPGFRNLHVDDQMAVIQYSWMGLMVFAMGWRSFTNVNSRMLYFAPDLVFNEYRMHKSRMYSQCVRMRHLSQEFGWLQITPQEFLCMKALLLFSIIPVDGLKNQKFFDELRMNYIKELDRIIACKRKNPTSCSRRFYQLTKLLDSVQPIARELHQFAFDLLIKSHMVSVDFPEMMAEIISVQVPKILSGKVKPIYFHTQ
In words: Human Androgen Receptor Binding (radioligand binding, LnCap prostate cancer cell line). Conditions: LnCap cells, displacement of [^3H]-methyltrienolone, 2 hours at 37° C.; read-out: AR LNCaP. In short, it runs like this:
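Whole-cell displacement of [3H]-methyltrienolone from endogenous AR (T878A) in LnCap cells, in RPMI with 0.1% BSA and triamcinolone acetonide. Compounds 10 μM to 0.1 nM in 1:10 steps, 2 h at 37 °C; cells washed, SDS-lysed, bound radioactivity by scintillation counting for IC50.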

Test [2] has as its target T2, Human Glucocorticoid Receptor (Homo sapiens, UniProt P04150).
T2 construct: endogenous in cells; host or cells: cytosol from IM-9 cell line
T2 sequence (P04150 1-777): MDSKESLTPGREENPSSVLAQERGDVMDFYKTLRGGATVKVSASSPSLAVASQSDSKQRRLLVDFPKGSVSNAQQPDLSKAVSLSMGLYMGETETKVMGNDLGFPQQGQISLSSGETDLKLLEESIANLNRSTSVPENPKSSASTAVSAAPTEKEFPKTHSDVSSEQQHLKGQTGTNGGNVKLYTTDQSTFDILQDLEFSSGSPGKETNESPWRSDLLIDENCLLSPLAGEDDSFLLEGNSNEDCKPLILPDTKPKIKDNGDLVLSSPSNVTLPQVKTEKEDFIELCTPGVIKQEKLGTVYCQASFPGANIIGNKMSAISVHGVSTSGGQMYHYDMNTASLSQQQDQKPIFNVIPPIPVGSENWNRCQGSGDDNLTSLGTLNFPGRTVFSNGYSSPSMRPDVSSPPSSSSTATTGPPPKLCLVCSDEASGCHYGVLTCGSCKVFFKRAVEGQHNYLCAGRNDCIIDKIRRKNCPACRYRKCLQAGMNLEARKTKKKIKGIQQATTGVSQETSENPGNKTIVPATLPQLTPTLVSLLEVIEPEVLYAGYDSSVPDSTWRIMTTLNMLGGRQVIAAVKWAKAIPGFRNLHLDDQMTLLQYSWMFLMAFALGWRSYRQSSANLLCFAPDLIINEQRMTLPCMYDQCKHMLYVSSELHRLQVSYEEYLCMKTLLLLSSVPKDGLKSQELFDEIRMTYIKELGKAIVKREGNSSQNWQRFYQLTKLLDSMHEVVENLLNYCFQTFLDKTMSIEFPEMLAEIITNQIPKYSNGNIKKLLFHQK
The test can be described thus: Competition Binding in IM-9 Human Glucocorticoid Receptor (GR IM-9). Conditions: cytosol from IM-9 cell line, 1.5 nM [3H]-Dexamethasone, 4° C. for 6 hours. In short, it runs like this:
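Radioligand competition using 100 μg IM-9 cell cytosol and 1.5 nM [3H]-dexamethasone, incubated 6 h at 4° C in TES/molybdate buffer, pH 7.4. Filtration on PEI-treated GF/B filters, scintillation counting; nonspecific binding defined with 10 μM triamcinolone.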

This passage reports IC50 results from US11453660B2, “Androgen receptor and glucocorticoid receptor modulators” (ONCOSTELLAE, S.L., priority 2017, dated 2022).

`CC(=O)C1=C(C)NC(C)=C(C(=O)OCc2cccc(-c3cccnc3)c2)C1c1csc2ncccc12` (centres unmarked) [Example L4, 3-(pyridin-3-yl)benzyl 5-acetyl-2,6-dimethyl-4-(thieno[2,3-b]pyridin-3-yl)-1,4-dihydropyridine-3-carboxylate]: the IC50 in test [1] and in test [2] was less than 100 nM in each case.
